Tests used:
[1] = molecular target: T1, biotinylated mouse siglec-2-Fc-Avi (Mus musculus, UniProt P35329); test: SPR binding to mouse siglec-2/CD22; conditions: steady-state analysis, read-out: Mouse CD22 affinity
T1 construct: made in house
T1 sequence (P35329 22-708 limits assumed): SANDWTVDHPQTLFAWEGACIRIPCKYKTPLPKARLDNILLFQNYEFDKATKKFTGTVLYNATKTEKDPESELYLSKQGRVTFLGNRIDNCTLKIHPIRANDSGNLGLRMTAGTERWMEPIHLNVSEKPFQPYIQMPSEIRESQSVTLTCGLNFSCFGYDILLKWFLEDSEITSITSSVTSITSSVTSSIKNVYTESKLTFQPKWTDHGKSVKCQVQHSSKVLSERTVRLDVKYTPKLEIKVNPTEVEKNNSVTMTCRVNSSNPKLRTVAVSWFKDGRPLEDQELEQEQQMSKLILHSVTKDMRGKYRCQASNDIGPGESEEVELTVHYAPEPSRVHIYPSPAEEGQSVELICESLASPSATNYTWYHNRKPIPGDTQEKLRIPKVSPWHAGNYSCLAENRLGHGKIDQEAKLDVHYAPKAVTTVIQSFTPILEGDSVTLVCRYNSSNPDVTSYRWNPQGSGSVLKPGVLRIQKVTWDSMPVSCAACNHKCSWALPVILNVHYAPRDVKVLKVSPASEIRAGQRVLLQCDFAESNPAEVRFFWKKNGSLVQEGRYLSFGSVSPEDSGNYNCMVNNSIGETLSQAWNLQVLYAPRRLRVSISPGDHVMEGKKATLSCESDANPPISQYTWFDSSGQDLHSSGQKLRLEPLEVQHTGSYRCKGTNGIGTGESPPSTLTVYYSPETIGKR
Experimental: (§1) The following proteins were used for CD22 ligand binding: biotinylated human siglec-2/CD22 protein-His-Avitag (Acro Biosystems, Cat #SI2-H82E3), biotinylated mouse siglec-2-Fc-Avi (in-house production), and recombinant cynomolgus siglec-2/CD22 His-tag (R&D systems, Cat #9864-SL-050). Prior to immobilization, CD22 proteins were treated with SialoExo (Genovis, Cat #G1-SM1-020) for 4 hours at 37° C. to remove native sialic acid residues.
(§2) Capture of biotinylated CD22 constructs was performed using a Cytiva SA chip (BR100398) on a Biacore 8K instrument. Human siglec 2 was immobilized on channels 1-4 and mouse siglec 2 on channels 5-8 on the active flow cell (2) and the reference flow cell (1) was immobilized with biotinylated human FGFR2 Fc Avi, an unrelated protein, to account for any nonspecific binding. Human siglec 2 and Mouse siglec 2 were diluted in running buffer to 20 μg/mL and injected on the active flow cell (2) for 300 seconds at 5 μL/min, yielding about 3500 RU of captured constructs.
(§3) Binding experiments of siglec-ligand conjugated proteins or Siglec ligand compounds were performed on the surfaces prepared above in 10 mM HEPES, 150 mM NaCl, 0.05% Tween-20, pH 7.5, 1% DMSO as the running buffer. Compounds were serially diluted in running buffer from 50 μM to 97.6 nM and injected over both the reference and active flow cells for 90 seconds at 30 μL/min. The compounds were then allowed to dissociate from the surface for 120 seconds. No regeneration was required as the compounds completely dissociated from the surface after 30 seconds. Solvent correction was performed using 0.5, 1, 1.5, and 2% DMSO spike into running buffer without DMSO. Data was analyzed using steady-state analysis in Biacore Insight Evaluation Software, version 3.0.

[2] = molecular target: T2, biotinylated human siglec-2/CD22 protein-His-Avitag (Homo sapiens, UniProt P20273); test: SPR binding to human siglec-2/CD22; conditions: steady-state analysis, read-out: Human CD22 affinity
T2 construct: purchased Acro Biosystems SI2-H82E3
T2 sequence (P20273 20-847): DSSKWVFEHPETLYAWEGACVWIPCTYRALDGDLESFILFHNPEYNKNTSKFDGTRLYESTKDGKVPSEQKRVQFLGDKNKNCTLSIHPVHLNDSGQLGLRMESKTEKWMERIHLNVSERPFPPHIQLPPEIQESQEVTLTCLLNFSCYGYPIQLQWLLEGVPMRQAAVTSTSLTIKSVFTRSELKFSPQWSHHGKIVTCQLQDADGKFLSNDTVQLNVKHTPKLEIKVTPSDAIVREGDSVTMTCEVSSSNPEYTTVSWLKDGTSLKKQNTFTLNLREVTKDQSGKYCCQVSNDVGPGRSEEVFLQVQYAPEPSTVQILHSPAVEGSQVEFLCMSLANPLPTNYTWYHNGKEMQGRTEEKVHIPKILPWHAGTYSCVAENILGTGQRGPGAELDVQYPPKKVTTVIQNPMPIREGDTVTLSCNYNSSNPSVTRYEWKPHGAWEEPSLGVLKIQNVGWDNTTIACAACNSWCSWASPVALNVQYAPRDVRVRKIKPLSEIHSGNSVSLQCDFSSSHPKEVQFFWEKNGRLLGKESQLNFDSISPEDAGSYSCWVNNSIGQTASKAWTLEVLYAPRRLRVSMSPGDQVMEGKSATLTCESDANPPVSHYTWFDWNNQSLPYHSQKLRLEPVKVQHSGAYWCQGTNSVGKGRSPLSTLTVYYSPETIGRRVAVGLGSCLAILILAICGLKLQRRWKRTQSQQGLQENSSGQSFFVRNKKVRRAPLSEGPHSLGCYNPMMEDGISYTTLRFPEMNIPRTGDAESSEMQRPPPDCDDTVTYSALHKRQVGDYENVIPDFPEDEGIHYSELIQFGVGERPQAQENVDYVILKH
Experimental: as §1, §2, §3

[3] = molecular target: recombinant cynomolgus siglec-2/CD22 His-tag (Macaca fascicularis, UniProt A0A2K5WCZ6); test: SPR binding to cynomolgus siglec-2/CD22; conditions: steady-state analysis, read-out: Cyno CD22 affinity
Experimental: as §1
Surface preparation for cyno CD22 protein consisted of amine coupling to Cytiva CM5 chip (Cytiva, Cat #BR100530) using the Cytiva amine coupling kit Type 2 (Cytiva, Cat #BR100633). Following the standard amine coupling protocols, EDC and NHS from the kit were mixed 1:1 and injected over flow cells 1 and 2. Cyno CD22 was then immobilized by injecting 10 μg/mL in Sodium Acetate, pH 5.5 onto flow cell (2) for 420 seconds at 10 uL/min, yielding approximately 2500 RU of captured protein. Any active carboxy groups were then capped with 1M Ethanolamine, pH 8.5 for 420 s on flow cells 1 and 2.
as §3

recombinant cynomolgus siglec-2/CD22 His-tag, sequence (A0A2K5WCZ6 entry or part of it): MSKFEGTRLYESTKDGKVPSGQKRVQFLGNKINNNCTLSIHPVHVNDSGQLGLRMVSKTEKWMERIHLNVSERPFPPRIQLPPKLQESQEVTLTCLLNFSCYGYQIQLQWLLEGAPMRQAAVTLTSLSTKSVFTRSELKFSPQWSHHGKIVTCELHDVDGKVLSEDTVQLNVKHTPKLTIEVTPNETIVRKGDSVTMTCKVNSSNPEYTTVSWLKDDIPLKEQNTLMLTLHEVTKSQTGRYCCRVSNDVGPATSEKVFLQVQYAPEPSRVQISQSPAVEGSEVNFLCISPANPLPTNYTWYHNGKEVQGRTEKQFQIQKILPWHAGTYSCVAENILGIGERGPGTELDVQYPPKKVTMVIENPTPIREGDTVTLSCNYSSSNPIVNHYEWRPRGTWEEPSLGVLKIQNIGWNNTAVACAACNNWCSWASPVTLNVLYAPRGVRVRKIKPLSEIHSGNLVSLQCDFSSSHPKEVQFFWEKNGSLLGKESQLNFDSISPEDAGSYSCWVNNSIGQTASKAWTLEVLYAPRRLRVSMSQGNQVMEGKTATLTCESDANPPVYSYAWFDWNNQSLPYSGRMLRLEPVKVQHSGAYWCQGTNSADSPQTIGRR

Structure (SMILES)	Kd [1] [µM]	Kd [2] [µM]	Kd [3] [µM]
O=C(O)CCCCCCCCC#Cc1ccc(CC(=O)NC[C@@H](O)[C@@H](O)[C@@H]2O[C@@](OCc3ccccc3)(C(=O)O)C[C@H](O)[C@H]2NC(=O)CO)cc1 [Compound 14, (2R,4S,5R,6R)-2-(benzyloxy)-6-((1R,2R)-3-(2-(4-(10-carboxydec-1-yn-1-yl)phenyl)acetamido)-1,2-dihydroxypropyl)-4-hydroxy-5-(2-hydroxyacetamido)tetrahydro-2H-pyran-2-carboxylic acid]	< 1	1 to 10	1 to 10
C#CCOCCCCCCCc1ccc(CC(=O)NC[C@@H](O)[C@@H](O)[C@@H]2O[C@@](OCc3ccccc3)(C(=O)O)C[C@H](O)[C@H]2NC(=O)CO)cc1 [Compound 13, (2R,4S,5R,6R)-2-(benzyloxy)-6-((1R,2R)-1,2-dihydroxy-3-(2-(4-(7-(prop-2-yn-1-yloxy)heptyl)phenyl)acetamido)propyl)-4-hydroxy-5-(2-hydroxyacetamido)tetrahydro-2H-pyran-2-carboxylic acid]	1 to 10	1 to 10	1 to 10
O=C(Cc1ccc(-c2cn(CCO)nn2)cc1)NC[C@@H](O)[C@@H](O)[C@@H]1O[C@@](OCc2ccccc2)(C(=O)O)C[C@H](O)[C@H]1NC(=O)CO [Compound 2, (2R,4S,5R,6R)-2-(benzyloxy)-6-((1R,2R)-1,2-dihydroxy-3-(2-(4-(1-(2-hydroxyethyl)-1H-1,2,3-triazol-4-yl)phenyl)acetamido)propyl)-4-hydroxy-5-(2-hydroxyacetamido)tetrahydro-2H-pyran-2-carboxylic acid]	1 to 10	1 to 10	–
O=C(Cc1ccc(OCc2cn(CCO)nn2)cc1)NC[C@@H](O)[C@@H](O)[C@@H]1O[C@@](OCc2ccccc2)(C(=O)O)C[C@H](O)[C@H]1NC(=O)CO [Compound 5, (2R,4S,5R,6R)-2-(benzyloxy)-6-((1R,2R)-1,2-dihydroxy-3-(2-(4-((1-(2-hydroxyethyl)-1H-1,2,3-triazol-4-yl)methoxy)phenyl)acetamido)propyl)-4-hydroxy-5-(2-hydroxyacetamido)tetrahydro-2H-pyran-2-carboxylic acid]	1 to 10	1 to 10	–
C#CCCCCCCC#Cc1ccc(CC(=O)NC[C@@H](O)[C@@H](O)[C@@H]2O[C@@](OCc3ccccc3)(C(=O)O)C[C@H](O)[C@H]2NC(=O)CO)cc1 [Compound 6, (2R,4S,5R,6R)-2-(benzyloxy)-6-((1R,2R)-3-(2-(4-(deca-1,9-diyn-1-yl)phenyl)acetamido)-1,2-dihydroxypropyl)-4-hydroxy-5-(2-hydroxyacetamido)tetrahydro-2H-pyran-2-carboxylic acid]	1 to 10	1 to 10	–

Other lines, results leading:

Kd [1] [µM]	Kd [2] [µM]	Kd [3] [µM]	Structure (SMILES)
1 to 10	1 to 10	1 to 10	C#Cc1ccc(CC(=O)NC[C@@H](O)[C@@H](O)[C@@H]2O[C@@](OCCOCCOCCOC)(C(=O)O)C[C@H](O)[C@H]2NC(=O)CO)cc1 [Compound 25, (2R,4S,5R,6R)-6-((1R,2R)-3-(2-(4-ethynylphenyl)acetamido)-1,2-dihydroxypropyl)-4-hydroxy-5-(2-hydroxyacetamido)-2-(2-(2-(2-methoxyethoxy)ethoxy)ethoxy)tetrahydro-2H-pyran-2-carboxylic acid]
1 to 10	1 to 10	–	C#Cc1ccc(CC(=O)NC[C@@H](O)[C@@H](O)[C@@H]2O[C@@](OCCCCCCN)(C(=O)O)C[C@H](O)[C@H]2NC(=O)CO)cc1 [Compound 10, (2R,4S,5R,6R)-2-((6-aminohexyl)oxy)-6-((1R,2R)-3-(2-(4-ethynylphenyl)acetamido)-1,2-dihydroxypropyl)-4-hydroxy-5-(2-hydroxyacetamido)tetrahydro-2H-pyran-2-carboxylic acid]
< 1	< 1	–	C#Cc1ccc(CC(=O)NC[C@@H](O)[C@@H](O)[C@@H]2O[C@@](OCCCCCCNc3c(NCCOC)c(=O)c3=O)(C(=O)O)C[C@H](O)[C@H]2NC(=O)CO)cc1 [Compound 26, (2R,4S,5R,6R)-6-((1R,2R)-3-(2-(4-ethynylphenyl)acetamido)-1,2-dihydroxypropyl)-4-hydroxy-5-(2-hydroxyacetamido)-2-((6-((2-((2-methoxyethyl)amino)-3,4-dioxocyclobut-1-en-1-yl)amino)hexyl)oxy)tetrahydro-2H-pyran-2-carboxylic acid]
< 1	< 1	–	C#Cc1ccc(CC(=O)NC[C@@H](O)[C@@H](O)[C@@H]2O[C@@](OCCCCCCNC(=O)CCCC)(C(=O)O)C[C@H](O)[C@H]2NC(=O)CO)cc1 [Compound 29, (2R,4S,5R,6R)-6-((1R,2R)-3-(2-(4-ethynylphenyl)acetamido)-1,2-dihydroxypropyl)-4-hydroxy-5-(2-hydroxyacetamido)-2-((6-pentanamidohexyl)oxy)tetrahydro-2H-pyran-2-carboxylic acid]
1 to 10	< 1	< 1	C#Cc1ccc(CC(=O)NC[C@@H](O)[C@@H](O)[C@@H]2O[C@@](OCc3ccc(O)cc3)(C(=O)O)C[C@H](O)[C@H]2NC(=O)CO)cc1 [Compound 3, (2R,4S,5R,6R)-6-((1R,2R)-3-(2-(4-ethynylphenyl)acetamido)-1,2-dihydroxypropyl)-4-hydroxy-5-(2-hydroxyacetamido)-2-((4-hydroxybenzyl)oxy)tetrahydro-2H-pyran-2-carboxylic acid]
1 to 10	1 to 10	–	C#CCOc1ccc(CC(=O)NC[C@@H](O)[C@@H](O)[C@@H]2O[C@@](OCc3ccccc3)(C(=O)O)C[C@H](O)[C@H]2NC(=O)CO)cc1 [Compound 4, (2R,4S,5R,6R)-2-(benzyloxy)-6-((1R,2R)-1,2-dihydroxy-3-(2-(4-(prop-2-yn-1-yloxy)phenyl)acetamido)propyl)-4-hydroxy-5-(2-hydroxyacetamido)tetrahydro-2H-pyran-2-carboxylic acid]

Source: patent US20250127904A1, “SIGLEC LIGANDS, CONJUGATES, AND METHODS OF USE THEREOF” (Osprey Biopharmaceuticals, Inc., priority 2023, published 2025)
